From ChEMBL document CHEMBL1145363, “Discovery of 6-ethyl-2,4-diaminopyrimidine-based small molecule renin inhibitors” (Bioorg Med Chem Lett, 2007) come the findings set out here.

Data set [1] concerns the target Cathepsin D (Homo sapiens) (UniProt P07339). Put plainly: Inhibition of cathepsin D at 100 uM.
In data set [2] the target is T1, Renin (Homo sapiens, UniProt P00797).
T1 sequence (P00797 whole entry): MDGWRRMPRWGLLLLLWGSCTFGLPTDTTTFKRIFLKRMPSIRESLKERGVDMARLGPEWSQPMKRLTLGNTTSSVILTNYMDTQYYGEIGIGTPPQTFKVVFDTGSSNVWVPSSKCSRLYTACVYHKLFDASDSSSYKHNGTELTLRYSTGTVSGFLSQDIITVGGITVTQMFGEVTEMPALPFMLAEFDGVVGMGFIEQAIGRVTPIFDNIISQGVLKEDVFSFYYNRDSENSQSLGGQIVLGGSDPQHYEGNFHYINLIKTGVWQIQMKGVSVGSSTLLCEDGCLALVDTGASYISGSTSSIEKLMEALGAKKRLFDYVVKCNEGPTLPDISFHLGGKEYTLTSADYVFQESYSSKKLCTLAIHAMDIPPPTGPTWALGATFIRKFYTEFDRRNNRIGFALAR
Nature of the data set: Inhibition of renin.

The species named for data set [3] is Homo sapiens. Put plainly: Inhibition of pepsin at 100 uM.
In data set [4] the target is T2, Cathepsin E (Homo sapiens) (UniProt P14091).
T2 sequence (whole entry): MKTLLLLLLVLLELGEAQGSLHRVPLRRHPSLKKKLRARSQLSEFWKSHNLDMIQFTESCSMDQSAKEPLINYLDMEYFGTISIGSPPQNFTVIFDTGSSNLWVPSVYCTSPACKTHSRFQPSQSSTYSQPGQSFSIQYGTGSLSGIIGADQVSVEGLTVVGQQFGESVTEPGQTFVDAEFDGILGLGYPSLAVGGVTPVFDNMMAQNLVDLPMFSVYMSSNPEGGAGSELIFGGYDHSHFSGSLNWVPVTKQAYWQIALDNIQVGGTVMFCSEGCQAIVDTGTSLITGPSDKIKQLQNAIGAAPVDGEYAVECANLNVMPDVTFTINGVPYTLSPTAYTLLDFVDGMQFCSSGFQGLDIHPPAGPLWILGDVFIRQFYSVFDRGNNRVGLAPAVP
Put plainly: Inhibition of cathepsin E at 100 uM.

A short description of data set [5]: Half life in human liver microsome. The note with it: liver microsomes. Format: ADME. (In general: Liver microsomes are vesicles of endoplasmic reticulum, rich in cytochrome P450 enzymes.)
Data set [6] in a line: Volume of distribution in Sprague-Dawley rat. Format: ADME, organism-based. As to conditions: in vivo, read-out: Vdss.
A short description of data set [7]: Plasma clearance in Sprague-Dawley rat. Format: ADME, organism-based.
Data set [8] can be described thus: Solubility of the compound. Format: physicochemical.
Data set [9] is described as follows: Elimination half life in Sprague-Dawley rat. Format: ADME, organism-based. The note with it: in vivo.
Data set [10] deals with Cytochrome P450 3A4 (Homo sapiens, UniProt P08684). Put plainly: Inhibition of CYP3A4. Format: ADME.
Sequence of Cytochrome P450 3A4 (P08684 whole entry): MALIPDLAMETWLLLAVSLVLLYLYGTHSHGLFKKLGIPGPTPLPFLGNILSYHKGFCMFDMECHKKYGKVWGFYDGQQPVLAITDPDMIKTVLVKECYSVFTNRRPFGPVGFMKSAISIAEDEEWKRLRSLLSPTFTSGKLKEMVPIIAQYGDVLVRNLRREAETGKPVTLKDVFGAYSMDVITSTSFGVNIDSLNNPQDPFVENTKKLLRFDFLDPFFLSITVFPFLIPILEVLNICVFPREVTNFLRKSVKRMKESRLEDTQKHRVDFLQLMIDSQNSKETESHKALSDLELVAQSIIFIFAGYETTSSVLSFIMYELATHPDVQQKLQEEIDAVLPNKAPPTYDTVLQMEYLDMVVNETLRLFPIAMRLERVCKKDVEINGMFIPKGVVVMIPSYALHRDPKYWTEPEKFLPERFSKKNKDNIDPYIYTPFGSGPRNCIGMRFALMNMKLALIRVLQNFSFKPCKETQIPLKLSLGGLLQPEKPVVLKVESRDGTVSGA
Data set [11] can be described thus: Oral bioavailability in Sprague-Dawley rat. As to conditions: in vivo. Format: ADME, organism-based.

Structures are written as SMILES. ≈ marks a conversion by molar mass, not a printed value. A value given as a limit tells only on which side of the number the result lay.

Sequence of Cathepsin D (Homo sapiens) (P07339 65-162 limits assumed): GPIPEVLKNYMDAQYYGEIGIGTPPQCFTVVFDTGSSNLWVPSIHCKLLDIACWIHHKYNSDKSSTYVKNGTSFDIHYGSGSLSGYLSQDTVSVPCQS
Sequence of Cathepsin D (Homo sapiens) (P07339 169-412 limits assumed): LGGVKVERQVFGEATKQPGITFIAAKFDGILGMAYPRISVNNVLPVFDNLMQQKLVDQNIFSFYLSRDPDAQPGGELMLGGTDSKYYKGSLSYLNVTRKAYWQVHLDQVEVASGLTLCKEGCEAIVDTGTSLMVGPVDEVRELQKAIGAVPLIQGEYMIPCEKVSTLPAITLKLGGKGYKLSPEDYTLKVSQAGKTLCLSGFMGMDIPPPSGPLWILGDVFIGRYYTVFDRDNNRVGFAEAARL

As usually defined, the inhibition is the percentage by which the read-out fell short of the control. The term IC50 denotes the midpoint of a concentration-inhibition curve. A lower IC50 goes with inhibition by little substance. Broadly, the half-life is the time needed for the level to fall by half in the phase considered. Read a high half-life as slow loss. As to `CCc1nc(N)nc(N)c1-c1ccc2c(c1)N(CCCC(=O)OC)CCC2`, the inhibition in [1], in [3] and in data set [4] was 0% in each case. The compound further displayed an IC50 in data set [2] of 120 nM. This compound registered a half-life in [5] of 5 min.

On to `COc1ccccc1COCCCOc1ccc(N2C(=O)CNC[C@@H]2COc2ccc3c(c2)N(CCNC(C)=O)CCC3)cc1`, for which the IC50 in data set [2] amounted to 0.5 nM. This counts as sub-nanomolar.

The clearance is the volume of plasma or blood freed of the substance per unit of time. A lower clearance goes with a low capacity for elimination. A word on the solubility: it is the concentration that dissolves in the medium under given conditions. Low values mean little dissolved substance, high ones much dissolved substance. For orientation: bioavailability means the share of a dose that reaches the circulation, judged against a reference dose that is usually intravenous. Read a low bioavailability as poor availability. `CCc1nc(N)nc(N)c1-c1ccc2c(c1)N(CCCOC)CCC2`: the inhibition in [1], in data set [3] and in [4] was 0% throughout. For the same compound, in data set [6], the Vd was 1.6 L/kg. The results for the IC50 in data set [2] and in data set [10] were 650 nM and 2800 nM, respectively. In data set [7], the clearance worked out at 36.8 mL/min/kg. Moreover, the concentration in solution in data set [8] (solubility) came to 59.3 µg/mL (≈ 174 µM). In data set [9], this compound showed a half-life of 66.6 min. Besides, the bioavailability in [11] is < 10%.

Consider `CCc1nc(N)nc(N)c1-c1ccc(NCc2cc(F)cc(F)c2)cc1`, for which 4000 nM corresponded to half-maximal inhibition in data set [2] (IC50).

Turning to `CCc1nc(N)nc(N)c1-c1ccc2c(c1)N(CCCCC(=O)OC)CCC2`, the inhibition in [1], in data set [3] and in data set [4] was 0% throughout. Further, the half-inhibitory concentration (IC50) was 91 nM in data set [2] and 12000 nM in data set [10]. Further, in [5], the half-life amounted to 5 min.

In the case of `CCc1nc(N)nc(N)c1-c1ccc2c(c1)N(CCC(=O)OC)CCC2`, the inhibition in [1], in data set [3] and in [4] was 0% each time. The IC50 came out at 198 nM in data set [2] and 10000 nM in [10]. In data set [5], this compound came in with a half-life of 5 min.

Turning to `CCc1nc(N)nc(N)c1-c1ccc(NCc2ccc(Cl)c(Cl)c2)cc1`, the IC50 in data set [2] was determined as 27000 nM. This lies in the double-digit micromolar range.

The compound `COC[C@@H](O)CO[C@@H]1CNC[C@H](OCc2cc(OC)c3ccccc3c2)[C@H]1c1ccc(OCCCOCc2ccccc2OC)cc1` came in with an IC50 in [2] of 0.067 nM.

For `CCc1nc(N)nc(N)c1-c1ccc2c(c1)N(CCNC(C)=O)CCC2`, the inhibition in [1], in data set [3] and in [4] was 0% each time. Besides, the IC50 in data set [2] worked out at 178 nM; in data set [10], 8000 nM.
